Data published in PubChem BioAssay (NCI).
Where “and” joins values, the source holds several entries; their conditions need not be identical. Equal values may be shown once.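 Test compounds were applied to cells in 96-well plates for 48 hours at 5 doses. GI50 marks 50% less growth. TGI: total growth inhibition.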

Tests used:
Test in all cases: inhibition of tumour cell growth, NCI panel, 48 h
OVCAR-8 ovarian = test system: OVCAR-8 ovarian
HCT-15 colon = test system: HCT-15 colon
SF-268 CNS = test system: SF-268 CNS
COLO 205 colon = test system: COLO 205 colon
SR leukemia = test system: SR leukemia
MCF7 breast = test system: MCF7 breast
MALME-3M melanoma = test system: MALME-3M melanoma
SK-MEL-2 melanoma = test system: SK-MEL-2 melanoma

| Compound | GI50 (OVCAR-8 ovarian) [µM] | TGI (OVCAR-8 ovarian) [µM] | GI50 (HCT-15 colon) [µM] | TGI (HCT-15 colon) [µM] | GI50 (SF-268 CNS) [µM] | TGI (SF-268 CNS) [µM] | GI50 (COLO 205 colon) [µM] | TGI (COLO 205 colon) [µM] | GI50 (SR leukemia) [µM] | TGI (SR leukemia) [µM] | GI50 (MCF7 breast) [µM] | TGI (MCF7 breast) [µM] | GI50 (MALME-3M melanoma) [µM] | TGI (MALME-3M melanoma) [µM] | GI50 (SK-MEL-2 melanoma) | TGI (SK-MEL-2 melanoma) [µM] |
| --- | --- | --- | --- | --- | --- | --- | --- | --- | --- | --- | --- | --- | --- | --- | --- | --- |
| COc1ccc(C(=O)c2cc3c(OC)c(OC)c(OC)cc3[nH]2)cc1 | 33.7 | > 100 | 2.23 | > 100 | 68.1 | > 100 | 3.45 | > 100 | 0.295 | 2.57 | 1.32 | > 100 | 5.8 | > 100 |  |  |
| S=C1Nc2ccc(Cl)cc2C2(c3ccccc3)N3CCN=C3NN12 (stereo not drawn) | 52.3 | > 100 | 34 | > 100 | 28.6 | > 100 | 26.3 | > 100 | 23.7 | 88.8 | 27.4 | > 100 | 23.5 | 78.4 |  |  |
| CCN1c2ccccc2C(Cl)(c2ccc(N(C)C)cc2)c2ccccc21 |  |  | 11.9 | 49.4 | 5.61 | 19.3 | 2.31 | 7.73 |  |  | 10.3 | 30.5 | 3.33 | 12.4 |  |  |
| COc1ccc(-c2ccc(-c3ccc(-c4ccc(C(=N)N)cc4)s3)s2)cc1OC | 3.76 | > 100 |  |  | 19.5 | 50.9 | 1.37 | 4.57 | 1.74 | 6 | 0.39 | 2.1 | 13 | 49.6 | 19.7 µM | 43.5 |
| C=CC1CC12C(=O)C1OC2(C)C2C(=O)c3c(O)ccc(O)c3C(=O)C12 (stereo not drawn) | 6.24 | 20.2 | 2 | 5.05 | 2.8 | 9.58 | 1.52 | 17 |  |  | 2.2 | 8.38 | 1.46 | 4.76 | 14.5 µM | > 100 |
| O=Nc1ccc2ccccc2c1O | 2.67 | 6.63 | 10.2 | 30.8 | 3.97 | 13.3 | 4.79 | 16.6 |  |  | 3.17 | 12.5 | 3.39 | 8.51 | 2.34 µM | 5.29 |
| CC(=O)O/N=C1/C(c2c(O)[nH]c3cc(Br)ccc23)=Nc2ccccc21 | 1.59 | 4.53 | 0.962 | 2.72 | 1.62 | 3.78 | 1.57 | 3 | 1.63 | 5.9 | 1.93 | 5.98 | 3.48 | 8.42 | 1.28 µM | 2.89 |
| CO[C@@H]1CC(=O)C2(CC(=O)O[C@@H]2/C=C(\C)CCC=C(C)C)C[C@@H]1O (stereo partly drawn) | 1.32 | > 10.5 | 0.56 | 1.55 | 1.18 | 4.74 | 1.07 | 2.11 |  |  | 0.199 | 1.17 |  |  | 1.39 µM | 4.88 |
| O=C(c1ccco1)c1c(C(F)(F)F)n([O-])c2ccccc2[n+]1=O | 1.23 | 22.5 | 0.785 | 3.85 | 0.515 | 2.56 | 3.32 | 28.5 | 0.0737 | 0.523 | 0.458 | 7.36 | 1.68 | 8.02 | 1.48 µM | 6.19 |
| Cc1ccc2c(c1)NC(=O)CC(c1ccccc1)=N2 |  | > 100 |  | > 100 |  | > 100 |  |  |  | 64.2 |  | > 100 |  | > 100 |  | > 100 |
| O=c1[nH]cnc2[nH]ncc12 | 214 | > 5000 | 143 | > 5000 | > 5000 | > 5000 | 440 | > 5000 | 480 | > 2670 | 259 | > 5000 | 1330 | > 5000 | > 36.5 µM and 257 µM | > 5000 |
| COc1ccc(/C=C\c2cc(OC)c(OC)c(OC)c2)cc1OC(=O)CCC(=O)O |  | 69.6 |  | > 100 |  | 45.1 | 1.68 | 38.5 |  | > 100 |  | > 100 |  |  |  | > 100 |
| COc1ccc2c(c1)C(c1ccccc1Cl)=Nc1c(n[nH]c1C)N2 | > 25 | > 25 | 14 | > 25 | 12.5 | > 25 | 11.7 | > 25 | 10.5 | > 25 | 13.7 | > 25 | > 25 | > 25 | > 11.2 µM | > 23.4 |
| CSc1ccc2c3c(n(C[C@H](O)CO)c(=O)c2c1)-c1ccccc1C3=O | 2.21 | 20.9 |  |  | 4.64 | > 100 | 2.94 | 21.1 |  |  | 0.423 | 11 | 4.3 | 22 | 16.6 µM | 60.8 |
| C=C(c1ccc(C(=O)N(C)c2ccccc2N)cc1)C(C)N1C(=O)[C@H]2CCCN2C(=O)c2ccccc21 (stereo partly drawn) | 43.7 | > 100 | 46.5 | > 100 | 25 | > 100 | 24 | > 100 | 18.7 | 74.9 | 23.2 | > 100 |  |  | 99.5 µM | > 100 |
| O=C(Cc1cccc(OC(F)(F)F)c1)Nc1ccc(CCCCc2nnc(NC(=O)Cc3ccccn3)s2)nn1 | 15.8 | 54.8 | > 100 | > 100 | 13.6 | 39.1 | 23.8 | > 100 | 33.7 | > 100 | 16.5 | > 100 | 28.6 | > 100 | 19 µM | 47.5 |
| C=C1C(=O)O[C@H]2[C@H]1CC/C(COC(=O)CSCC(=O)OC/C1=C/CC[C@@]3(C)O[C@H]3[C@H]3OC(=O)C(=C)[C@@H]3CC1)=C\CC[C@@]1(C)O[C@@H]21 | 1.48 | 4.21 | 1.25 | 2.69 | 3.28 | 13.9 | 0.887 | 2.44 | 0.282 | 2.15 | 0.48 | 2.33 | 1.24 | 2.8 | 2.12 µM | 5.62 |

| Compound | GI50 (OVCAR-8 ovarian) [µM] | TGI (OVCAR-8 ovarian) [µM] | GI50 (HCT-15 colon) [µM] | TGI (HCT-15 colon) [µM] | GI50 (SF-268 CNS) [µM] | TGI (SF-268 CNS) [µM] | GI50 (COLO 205 colon) [µM] | TGI (COLO 205 colon) [µM] | GI50 (SR leukemia) [µM] | TGI (SR leukemia) [µM] | GI50 (MCF7 breast) [µM] | TGI (MCF7 breast) [µM] | GI50 (MALME-3M melanoma) [µM] | TGI (MALME-3M melanoma) [µM] | GI50 (SK-MEL-2 melanoma) | TGI (SK-MEL-2 melanoma) [µM] |
| --- | --- | --- | --- | --- | --- | --- | --- | --- | --- | --- | --- | --- | --- | --- | --- | --- |
| COC(=O)[C@]12CC[C@@H](C)[C@H](C)[C@@H]1C1=CC[C@@H]3[C@@]4(C)C=C(O)C(=O)[C@@]5(C)COC(=C54)C[C@@]3(C)[C@]1(C)CC2 | 12.9 | 47 | 11.6 | 26.6 | 13.3 | 31.6 | 13.5 | 29.6 | 2.69 | 8.77 | 3.45 | 12.3 | 15 | 32.4 | 13.1 µM | 29.6 |
| COc1ccc(/C=C/C(=O)Oc2cc(O)cc(O)c2)cc1 |  | > 100 |  | 65.9 |  | 86.5 |  | > 100 |  | > 100 |  | 71.7 |  | > 100 |  | > 100 |
| Cc1ccc(-c2cc(C3=CC(=O)C=CC3=O)n(-c3ccc(S(N)(=O)=O)cc3)n2)cc1 | 88.7 | > 100 | 58.2 | > 100 | 55.3 | > 100 | 53.9 | > 100 |  |  | 53.1 | > 100 |  |  | > 100 µM | > 100 |
| CN1CCN(Cc2ccc(NC(=O)c3ccc(C#Cc4c(N)ncc5ccc(F)cc45)cc3)cc2C(F)(F)F)CC1 | 0.955 | 1.81 | 0.892 | 1.74 | 0.948 | 2.14 | 0.901 | 1.64 | 0.897 | 2.32 | 0.837 | 1.59 | 0.945 | 1.8 | 1.08 µM | 2.04 |
| O=C(CCl)N1c2ccccc2Sc2ccc3ccccc3c21 | 1.64 | 3.71 | 1.09 | 2.53 | 1.64 | 3.16 | 1.69 | 3.14 | 0.634 | 9.74 | 1.49 | 3.29 | 0.352 | 1.32 | 1.97 µM | 3.8 |
| CC(C)NC(=O)OCc1c(COC(=O)NC(C)C)c(-c2ccc(Cl)cc2)n2c1CCC2 | 4.1 | > 85.5 | 4.07 | > 50.1 | 2.25 | 13.5 | 4.26 | 17.1 | 0.218 |  | 3.59 | 33.4 | 2.36 | 9.69 | 4.23 µM | 17.4 |
| O=C(N/N=C/c1ccccc1O)C(=O)Nc1ccc(F)cc1 | 4.3 | > 100 | 1.86 | > 100 | 2.77 | > 100 | 3.28 | > 100 | 2.52 | > 100 | 3.52 | > 100 | 10.7 | 82.7 | 22.9 µM | > 100 |
| O=C(Nc1ccc(Cl)cc1)c1cc(-c2ccc(Cl)cc2)c2sc(=O)[nH]c2n1 | 2.04 | 12.8 | 1.27 | 9.54 | 2.56 | 22.3 | 1.63 | 3.54 | 3.63 | > 100 | 1.78 | 9.26 | 2.31 | 6.25 | 1.18 µM | 3.99 |
| COc1ccccc1/C=N\N=C(N/N=C/c1ccccc1OC)N/N=C/c1ccccc1OC | 3.23 | 14.5 | 3.27 | 18.3 | 3.69 | > 100 | 2.11 | 4.63 | 3.16 | 12.5 | 3.02 | 23.5 | 3.73 | 20.8 | 5.51 µM | > 100 |
| C=C1C(=O)O[C@H]2[C@H]1CC/C(COC(=O)NCCc1c[nH]c3ccc(OC)cc13)=C\CC[C@@]1(C)O[C@@H]21 | 1.97 | 5.23 | 1.14 | 2.45 | 3 | 13.1 | 1.3 | 2.78 | 1.02 | 9.33 |  |  | 1.91 | 3.9 | 1.84 µM | 4.18 |
| COc1ccccc1C#Cc1ccccc1C#CCCCCCC#Cc1ccccc1C#Cc1ccccc1OC | > 100 | > 100 | 40.9 | > 100 | 96.5 | > 100 | 80.1 | > 100 |  |  | 17.3 | > 100 | > 100 | > 100 | > 100 µM | > 100 |
| Cc1ccc(SC2=CC(=O)c3nc4ccccc4c4ccnc2c34)cc1 | 18 | 41.2 | 18.4 | 40.6 | 29.7 | > 70.7 | 39.4 | > 85.6 |  |  | 26.8 | > 68.6 | 46.7 | > 69.5 | 21.2 µM | 58.2 |
| CC(=O)OC1CC2(O)C3CCC4CC(O)CCC4(C)C3CCC2(C)C1C1=CC(=O)OC1 (stereo not drawn) |  | 0.272 |  | 0.253 |  | 0.15 |  | 0.76 |  | 0.131 |  |  |  | 0.111 |  | 0.505 |
| CN(C)C(=O)c1cc2cnc(Nc3ccc(-c4csc5c(=O)cc(N6CCOCC6)oc45)cc3)nc2n1C1CCCC1 | 0.268 | > 30.5 | 0.224 | 1.35 | 0.222 |  | 0.166 | 1.32 | 0.101 | > 80 | 0.0881 | 1.01 |  |  | 0.236 µM | 0.679 |
| C#Cc1c(C(N)=O)ncn1C1OC(COP(=O)(OCc2ccc([N+](=O)[O-])o2)N(C)CCCCCl)C(O)C1O (stereo not drawn) | 9.91 | > 100 | 31.3 | > 100 | 45.1 | > 100 | 5.5 | 88.2 |  |  | 20.1 | > 100 |  |  | 89.9 µM | > 100 |
| COc1ccc(-n2c3c(c4c(CN5CCOCC5)c(O)ccc42)CCc2ccccc2C3=O)cc1 | 64.4 | > 100 | > 100 | > 100 | > 100 | > 100 | > 100 | > 100 |  |  | > 100 | > 100 | > 100 | > 100 | > 100 µM | > 100 |
